Laboratory results as given in ChEMBL document CHEMBL1909294, “Translating clinical findings into knowledge in drug safety evaluation--drug induced liver injury prediction system (DILIps)” (PLoS Comput Biol, 2011).

How the values were obtained:
[1] = test system: Hepatotoxicity
Description: Drug Induced Liver Injury Prediction System (DILIps) validation dataset; compound DILI positive/negative as observed in O'Brien data

[2] = test system: Hepatotoxicity; remark: listed apart in the source
Description: Drug Induced Liver Injury Prediction System (DILIps) validation dataset; compound DILI positive/negative as observed in Pfizer data

[3] = test system: Hepatotoxicity; remark: listed apart in the source
Description: Drug Induced Liver Injury Prediction System (DILIps) validation dataset; compound DILI positive/negative as observed in LTKB-BD

Compound	DILI positive/negative [1]	DILI positive/negative [2]	DILI positive/negative [3]	other results
CC[C@]1(O)CC[C@H]2[C@@H]3CCC4=CCCC[C@@H]4[C@H]3CC[C@@]21C	1			
CN(C)CCN(Cc1cccs1)c1ccccn1	1	1		
CCN(CC)Cc1cc(Nc2ccnc3cc(Cl)ccc23)ccc1O.Cl				DILI positive/negative ([1]; Liver): 1
O=C(O)COc1ccc(C(=O)c2cccs2)c(Cl)c1Cl		1	1	
CC(=O)Nc1ccc(O)cc1 [ACETAMINOPHEN]	1	1		
CCCN(CCC)C(=O)Cc1c(-c2ccc(Cl)cc2)nc2ccc(Cl)cn12 [ALPIDEM]		1	1	
CN(C)C(=O)Oc1cc(OC(=O)N(C)C)cc(C(O)CNC(C)(C)C)c1 (stereo unspecified) [BAMBUTEROL]	0	0		
CC(C(=O)O)c1ccc2oc(-c3ccc(Cl)cc3)nc2c1 (stereo unspecified) [BENOXAPROFEN]		1	1	
CCc1oc2ccccc2c1C(=O)c1cc(Br)c(O)c(Br)c1 [BENZBROMARONE]		1	1	
O=C(O)CCCC[C@@H]1SC[C@@H]2NC(=O)N[C@@H]21 [BIOTIN]	0	0		
CC(=O)Oc1ccc(C(c2ccc(OC(C)=O)cc2)c2ccccn2)cc1 [BISACODYL]	0			
Nc1c(CC(=O)O)cccc1C(=O)c1ccc(Br)cc1 [BROMFENAC]		1	1	
O=C(O)c1cc(-c2ccccc2)nc2ccccc12 [CINCHOPHEN]		1	1	
CC(C)(Oc1ccc(C2CC2(Cl)Cl)cc1)C(=O)O (stereo unspecified) [CIPROFIBRATE]	1	1		
C[N+](C)(C)CCOP(=O)(O)OP(=O)([O-])OC[C@H]1O[C@@H](n2ccc(N)nc2=O)[C@H](O)[C@@H]1O [CITICOLINE]	0	0		
CCOC(=O)C(C)(C)Oc1ccc(Cl)cc1 [CLOFIBRATE]	1	1		
COc1cc2c(c(OC)c1OC)-c1ccc(OC)c(=O)cc1[C@@H](NC(C)=O)CC2 [COLCHICINE]	1			
CCN(CC)C(=O)N1CCN(C)CC1 [DIETHYLCARBAMAZINE]	1	1		
C[S+](C)[O-] [DIMETHYL SULFOXIDE]	0			
O=C(COc1ccc(Cl)cc1)N1CCN(Cc2ccc3c(c2)OCO3)CC1 [FIPEXIDE]		1	1	
O=C1OCCN1/N=C/c1ccc([N+](=O)[O-])o1 [FURAZOLIDONE]	1	1		
CC(=O)O[C@H]1C[C@@]2(C)[C@@H](C[C@@H](O)[C@H]3[C@@]4(C)CC[C@@H](O)[C@@H](C)[C@@H]4CC[C@@]32C)/C1=C(\CCC=C(C)C)C(=O)O [FUSIDIC ACID]	1			
O=C(OCC(O)CO)c1ccccc1Nc1ccnc2cc(Cl)ccc12 (stereo unspecified) [GLAFENINE]				DILI positive/negative ([2]; Liver): 1; DILI positive/negative ([3]; Liver): 1
CC(C)Cc1ccc(CC(=O)O)cc1 [IBUFENAC]		1	1	
O[C@H]1[C@H](O)[C@@H](O)[C@H](O)[C@@H](O)[C@H]1O [INOSITOL]	0	0		
CC(C)NNC(=O)c1ccncc1 [IPRONIAZID]		1	1	
CC1=C(/C=C/C(C)=C/C=C/C(C)=C\C(=O)O)C(C)(C)CCC1 [ISOTRETINOIN]	1	1		
C=C1c2cccc(O)c2C(=O)C2=C(O)[C@]3(O)C(=O)C(C(N)=O)=C(O)[C@@H](N(C)C)[C@@H]3[C@@H](O)[C@H]12 [METHACYCLINE]	1			

Compound	DILI positive/negative [1]	DILI positive/negative [2]	DILI positive/negative [3]	other results
CN(C)Cc1ccc(CSCCN/C(=C\[N+](=O)[O-])NCc2ccc3c(c2)OCO3)o1 [NIPEROTIDINE]				DILI positive/negative ([3]; Liver): 1
Cc1nc([N+](=O)[O-])cn1-c1ccc([N+](=O)[O-])cc1 [NITREFAZOLE]			1	
CN1Cc2c(N)cccc2C(c2ccccc2)C1 (stereo unspecified) [NOMIFENSINE]		1	1	
CO[C@@H]1[C@@H](OC(N)=O)[C@@H](O)[C@H](Oc2ccc3c(O)c(NC(=O)c4ccc(O)c(CC=C(C)C)c4)c(=O)oc3c2C)OC1(C)C [NOVOBIOCIN]	1	1		
O=C1Nc2ccccc2C1(c1ccc(O)cc1)c1ccc(O)cc1 [OXYPHENISATINE]			1	
CONC(=N)c1ccc(-c2ccc(-c3ccc(C(=N)NOC)cc3)o2)cc1 [PAFURAMIDINE]			1	
C1CCC(C(CC2CCCCN2)C2CCCCC2)CC1 (stereo unspecified) [PERHEXILINE]		1	1	
C[C@H]1[C@H](c2ccccc2)OCCN1C [PHENDIMETRAZINE]			0	
CC(COc1ccccc1)NN (stereo unspecified) [PHENOXYPROPAZINE]			1	
COc1ccc(C(=O)NCc2cccnc2)cc1C(=O)NCc1cccnc1 [PICOTAMIDE]	0			
NC(=O)C1CCN(CCCN2c3ccccc3Sc3ccc(Cl)cc32)CC1 [PIPAMAZINE]			1	
CC(C(=O)O)c1ccc(N2CC=CC2)c(Cl)c1 (stereo unspecified) [PIRPROFEN]		1	1	
CCN(CC)CCCC(C)Nc1c2ccc(Cl)cc2nc2ccc(OC)cc12 (stereo unspecified) [QUINACRINE]	1			
C=C[C@H]1C[N@@]2CC[C@H]1C[C@H]2[C@H](O)c1ccnc2ccc(OC)cc12 [QUININE]	1			
NC(=O)NS(=O)(=O)c1ccc(N)cc1 [SULFACARBAMIDE]			1	
Nc1ccc(S(=O)(=O)Nc2ccnn2-c2ccccc2)cc1 [SULFAPHENAZOLE]	1			
Nc1ccc(S(=O)(=O)Nc2nccs2)cc1 [SULFATHIAZOLE]				DILI positive/negative ([3]; Liver): 1
CCCCCCCCNC(C)C(O)c1ccc(SC(C)C)cc1 (stereo unspecified) [SULOCTIDIL]			1	
Cc1nc(C)c2c(n1)N(Cc1ccc(-c3ccccc3-c3nnn[nH]3)cc1)C(=O)CC2 [TASOSARTAN]		1	1	
CCC1(c2ccccc2)C(=O)NC(=O)NC1=O.CCCCCOC(CN1C(=O)N(CC(COCCCC)OC(N)=O)C(=O)C(CC)(c2ccccc2)C1=O)OC(N)=O.CCCCOCC(CN1C(=O)NC(=O)C(CC)(c2ccccc2)C1=O)OC(N)=O (stereo unspecified) [TETRABAMATE]			1	
Cc1cc(Br)c(O)c2ncccc12 [TILBROQUINOL]			1	
COc1ccc2c(C(=S)N(C)CC(=O)O)cccc2c1C(F)(F)F [TOLRESTAT]			1	
CC(=O)Oc1ccc(C2(c3ccc(OC(C)=O)cc3)C(=O)N(C(C)=O)c3ccccc32)cc1 [TRIACETYLDIPHENOLISATIN]			1	
CCOC(Nc1ccc(C(=O)O)cc1)C(=O)c1ccc(-c2ccccc2)cc1 (stereo unspecified) [XENAZOIC ACID]			1	
CCOC(=O)CN[C@@H](C(=O)N1CC[C@H]1C(=O)NCc1ccc(/C(N)=N\O)cc1)C1CCCCC1 [XIMELAGATRAN]			1	
CN(C)C/C=C(/c1ccc(Br)cc1)c1cccnc1 [ZIMELDINE]			1	
COLISTIMETHATE			0	
